Laboratory results from patent publication US20230321125A1, “COMPOSITIONS OF GINSENOSIDE RG3 AND GINSENOSIDE RG5 AND THEIR PHARMACEUTICAL USES INCLUDING ANTI-TUMOR EFFECTS” (DALIAN FUSHENG NATURAL MEDICINE DEVELOPMENT CO., LTD., priority 2020, published 2023).

Test system: QBC939/ADM
Assay: CCK-8 assay of cytotoxicity of targeted drugs with or without ginsenoside composition in drug-resistant cells
Format: cell-based, Human
Conditions: 24 h
Method: 1. Materials and Methods Human cholangiocarcinoma cell line QBC939, purchased from Shanghai Honshun Biological Technology Co., Ltd.
The human cholangiocarcinoma cell line QBC939 was thawed and inoculated into T25 cell culture flasks filled with cell culture medium, and QBC939/ADM was constructed by continuously increasing the contact concentration of ADM.
The cells were divided into a blank zeroed control group, a normal control group and 9 experimental groups, each containing 100 μL of 80 μg/mL ginsenoside composition for cell culturing.
The control group (chemotherapeutic drug group): 100 μL of culture medium containing chemotherapeutic drugs was added to each well. The chemotherapeutic drugs included the targeted drugs afatinib (400 μg/mL), ceritinib (1000 μg/mL) and erlotinib (200 μg/mL). Six replicate wells were set up for each drug.
The experimental group (chemotherapeutic drugs+traditional Chinese medicine): 100 μL of culture medium containing chemotherapeutic drugs+ginsenoside composition was added to each well, namely afatinib (400 μg/mL)+ginsenoside composition (80 μg/mL), ceritinib (1000 μg/mL)+ginsenoside composition (80 μg/mL), and erlotinib (200 μg/mL)+ginsenoside composition (80 μg/mL). Six replicate wells were set up for each drug.
The cytotoxic effects of the chemotherapeutic drugs were detected 24 h later.

CN(C)C/C=C/C(=O)Nc1cc2c(Nc3ccc(F)c(Cl)c3)ncnc2cc1O[C@H]1CCOC1 [afatinib]
Absorbance value (OD, CCK-8), Afatinib (control group: afatinib 400 μg/mL alone): 1.179 ± 0.147

Cc1cc(Nc2ncc(Cl)c(Nc3ccccc3S(=O)(=O)C(C)C)n2)c(OC(C)C)cc1C1CCNCC1 [ceritinib]
Absorbance value (OD, CCK-8), Ceritinib (control group: ceritinib 1000 μg/mL alone): 1.304 ± 0.096

C#Cc1cccc(Nc2ncnc3cc(OCCOC)c(OCCOC)cc23)c1 [erlotinib]
Absorbance value (OD, CCK-8), Erlotinib (control group: erlotinib 200 μg/mL alone): 1.294 ± 0.131
